# Source: ChEMBL document CHEMBL4507296 (2021)
# Experiments:
# [1] = target: Serine/threonine-protein kinase 16 (Homo sapiens) (UniProt O75716); settings: Compound concentration 1000.0 nM
# [2] = system: Epidermal growth factor receptor (Homo sapiens), P00533 [UNDEFINED MUTATION]; settings: Compound concentration 1000.0 nM
# [3] = target: Serine/threonine-protein kinase SIK3 (Homo sapiens) (UniProt Q9Y2K2); settings: Compound concentration 1000.0 nM
# [4] = target: Ephrin type-A receptor 8 (Homo sapiens) (UniProt P29322); settings: Compound concentration 1000.0 nM
# [5] = system: Mast/stem cell growth factor receptor Kit (Homo sapiens), P10721 [V559D,T670I]; settings: Compound concentration 1000.0 nM
# [6] = target: Atypical kinase COQ8A, mitochondrial (Homo sapiens) (UniProt Q8NI60); settings: Compound concentration 1000.0 nM
# [7] = system: Tyrosine-protein kinase ABL1 (Homo sapiens), P00519 [Y253F]; settings: Compound concentration 1000.0 nM
# [8] = target: Casein kinase I isoform gamma-1 (Homo sapiens) (UniProt Q9HCP0); settings: Compound concentration 1000.0 nM
# [9] = target: Tyrosine-protein kinase Fes/Fps (Homo sapiens) (UniProt P07332); settings: Compound concentration 1000.0 nM
# [10] = target: Phosphatidylinositol 4,5-bisphosphate 3-kinase catalytic subunit gamma isoform (Homo sapiens) (UniProt P48736); settings: Compound concentration 1000.0 nM
# [11] = target: Myosin light chain kinase, smooth muscle (Homo sapiens) (UniProt Q15746); settings: Compound concentration 1000.0 nM
# Myosin light chain kinase, smooth muscle (Homo sapiens), sequence (Q15746 whole entry): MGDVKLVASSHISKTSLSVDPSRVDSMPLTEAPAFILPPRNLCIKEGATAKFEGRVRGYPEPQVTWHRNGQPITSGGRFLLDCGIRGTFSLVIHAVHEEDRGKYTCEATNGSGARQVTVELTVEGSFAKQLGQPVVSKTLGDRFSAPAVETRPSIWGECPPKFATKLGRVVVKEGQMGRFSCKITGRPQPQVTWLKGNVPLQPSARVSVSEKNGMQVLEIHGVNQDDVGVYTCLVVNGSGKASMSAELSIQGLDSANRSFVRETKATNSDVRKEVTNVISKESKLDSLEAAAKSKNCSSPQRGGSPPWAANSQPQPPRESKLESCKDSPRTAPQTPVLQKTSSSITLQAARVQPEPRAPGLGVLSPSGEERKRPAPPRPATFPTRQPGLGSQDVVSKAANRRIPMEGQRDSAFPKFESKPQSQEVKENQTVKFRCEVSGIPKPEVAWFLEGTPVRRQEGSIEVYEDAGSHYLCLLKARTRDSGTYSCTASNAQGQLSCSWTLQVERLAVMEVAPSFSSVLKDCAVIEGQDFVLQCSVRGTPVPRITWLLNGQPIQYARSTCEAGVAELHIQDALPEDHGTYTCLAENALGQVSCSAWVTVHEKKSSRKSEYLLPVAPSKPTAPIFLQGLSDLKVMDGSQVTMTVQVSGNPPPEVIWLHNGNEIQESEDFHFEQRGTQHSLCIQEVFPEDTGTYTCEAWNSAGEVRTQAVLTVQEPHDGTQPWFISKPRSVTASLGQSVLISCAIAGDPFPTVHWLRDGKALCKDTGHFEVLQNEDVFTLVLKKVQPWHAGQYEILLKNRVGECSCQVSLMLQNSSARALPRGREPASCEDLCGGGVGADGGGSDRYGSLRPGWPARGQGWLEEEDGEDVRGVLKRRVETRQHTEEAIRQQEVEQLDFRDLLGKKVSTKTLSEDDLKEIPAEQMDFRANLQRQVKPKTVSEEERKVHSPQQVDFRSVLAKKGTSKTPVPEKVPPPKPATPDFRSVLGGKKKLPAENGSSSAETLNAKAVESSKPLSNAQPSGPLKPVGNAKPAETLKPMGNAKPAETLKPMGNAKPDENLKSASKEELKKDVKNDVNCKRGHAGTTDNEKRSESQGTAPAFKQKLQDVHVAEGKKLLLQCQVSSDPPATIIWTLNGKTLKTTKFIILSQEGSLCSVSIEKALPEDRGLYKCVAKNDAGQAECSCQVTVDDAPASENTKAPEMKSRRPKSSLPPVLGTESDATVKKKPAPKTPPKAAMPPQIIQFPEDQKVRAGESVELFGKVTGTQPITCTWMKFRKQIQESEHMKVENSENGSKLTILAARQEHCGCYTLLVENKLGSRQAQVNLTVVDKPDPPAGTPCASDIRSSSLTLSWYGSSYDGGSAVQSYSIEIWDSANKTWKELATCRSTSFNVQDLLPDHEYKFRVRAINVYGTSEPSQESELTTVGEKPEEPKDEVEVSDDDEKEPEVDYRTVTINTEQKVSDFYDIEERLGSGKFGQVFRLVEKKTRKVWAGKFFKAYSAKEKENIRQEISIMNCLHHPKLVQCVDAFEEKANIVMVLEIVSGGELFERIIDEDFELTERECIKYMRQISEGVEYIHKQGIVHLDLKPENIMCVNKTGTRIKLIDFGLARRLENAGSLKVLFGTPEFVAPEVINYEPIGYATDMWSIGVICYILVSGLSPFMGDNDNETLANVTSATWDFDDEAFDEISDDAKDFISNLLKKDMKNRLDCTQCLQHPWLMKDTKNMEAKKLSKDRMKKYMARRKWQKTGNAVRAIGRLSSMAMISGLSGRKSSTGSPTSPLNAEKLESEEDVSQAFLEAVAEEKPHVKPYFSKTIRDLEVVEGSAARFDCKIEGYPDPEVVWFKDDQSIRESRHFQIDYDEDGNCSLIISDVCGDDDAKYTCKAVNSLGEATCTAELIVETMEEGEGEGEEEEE
# [12] = target: Serine/threonine-protein kinase Sgk1 (Homo sapiens) (UniProt O00141); settings: Compound concentration 1000.0 nM
# [13] = target: Tyrosine-protein kinase Mer (Homo sapiens) (UniProt Q12866); settings: Compound concentration 1000.0 nM
# [14] = target: Serine/threonine-protein kinase MRCK gamma (Homo sapiens) (UniProt Q6DT37); settings: Compound concentration 1000.0 nM
# Serine/threonine-protein kinase MRCK gamma (Homo sapiens), sequence (Q6DT37 whole entry): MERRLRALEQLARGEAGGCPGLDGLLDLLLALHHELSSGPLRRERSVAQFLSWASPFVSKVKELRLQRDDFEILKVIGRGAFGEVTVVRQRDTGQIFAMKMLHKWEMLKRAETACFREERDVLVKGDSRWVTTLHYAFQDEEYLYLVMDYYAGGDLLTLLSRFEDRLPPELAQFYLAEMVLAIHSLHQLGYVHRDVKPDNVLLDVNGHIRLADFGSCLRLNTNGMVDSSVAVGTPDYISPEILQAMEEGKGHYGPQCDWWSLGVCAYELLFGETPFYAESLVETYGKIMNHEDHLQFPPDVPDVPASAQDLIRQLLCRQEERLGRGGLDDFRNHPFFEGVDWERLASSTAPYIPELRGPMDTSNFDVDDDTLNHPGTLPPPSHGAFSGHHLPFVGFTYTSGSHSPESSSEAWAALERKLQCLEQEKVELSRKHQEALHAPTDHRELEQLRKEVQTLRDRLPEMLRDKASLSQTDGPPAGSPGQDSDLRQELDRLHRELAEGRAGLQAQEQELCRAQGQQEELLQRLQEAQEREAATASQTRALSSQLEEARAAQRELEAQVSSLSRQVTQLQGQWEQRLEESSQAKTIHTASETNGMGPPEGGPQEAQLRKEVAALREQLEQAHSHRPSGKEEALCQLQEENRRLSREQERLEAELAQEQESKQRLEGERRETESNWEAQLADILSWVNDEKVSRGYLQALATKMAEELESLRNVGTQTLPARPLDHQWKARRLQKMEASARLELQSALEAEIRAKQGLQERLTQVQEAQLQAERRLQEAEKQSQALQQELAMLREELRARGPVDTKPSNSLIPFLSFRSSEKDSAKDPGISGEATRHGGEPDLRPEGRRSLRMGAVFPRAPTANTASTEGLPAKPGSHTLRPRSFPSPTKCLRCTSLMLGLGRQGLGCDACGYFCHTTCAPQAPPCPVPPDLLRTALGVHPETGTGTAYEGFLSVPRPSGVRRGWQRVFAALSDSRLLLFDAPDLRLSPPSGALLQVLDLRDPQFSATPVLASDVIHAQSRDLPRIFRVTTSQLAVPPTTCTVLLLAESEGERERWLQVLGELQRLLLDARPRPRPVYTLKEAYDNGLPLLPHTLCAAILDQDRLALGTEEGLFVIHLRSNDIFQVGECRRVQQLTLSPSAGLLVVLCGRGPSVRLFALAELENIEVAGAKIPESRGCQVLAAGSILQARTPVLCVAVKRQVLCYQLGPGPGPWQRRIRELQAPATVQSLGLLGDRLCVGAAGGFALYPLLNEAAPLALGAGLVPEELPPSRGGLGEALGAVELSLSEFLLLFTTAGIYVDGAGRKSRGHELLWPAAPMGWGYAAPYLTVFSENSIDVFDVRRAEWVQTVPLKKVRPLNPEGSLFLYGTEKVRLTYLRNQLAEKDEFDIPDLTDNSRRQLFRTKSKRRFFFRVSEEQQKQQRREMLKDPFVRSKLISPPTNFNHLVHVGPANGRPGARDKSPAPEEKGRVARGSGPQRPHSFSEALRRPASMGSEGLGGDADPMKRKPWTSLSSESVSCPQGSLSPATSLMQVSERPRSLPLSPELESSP
# [15] = target: Serine/threonine-protein kinase NIM1 (Homo sapiens) (UniProt Q8IY84); settings: Compound concentration 1000.0 nM
# [16] = target: Serine/threonine-protein kinase 36 (Homo sapiens) (UniProt Q9NRP7); settings: Compound concentration 1000.0 nM
# [17] = target: Macrophage colony-stimulating factor 1 receptor (Homo sapiens) (UniProt P07333); settings: Compound concentration 1000.0 nM
# [18] = system: ALK tyrosine kinase receptor (Homo sapiens), Q9UM73 [L1196M]; settings: Compound concentration 1000.0 nM
# ALK tyrosine kinase receptor (Homo sapiens), Q9UM73 [L1196M], sequence (Q9UM73 whole entry L1196M, looked up): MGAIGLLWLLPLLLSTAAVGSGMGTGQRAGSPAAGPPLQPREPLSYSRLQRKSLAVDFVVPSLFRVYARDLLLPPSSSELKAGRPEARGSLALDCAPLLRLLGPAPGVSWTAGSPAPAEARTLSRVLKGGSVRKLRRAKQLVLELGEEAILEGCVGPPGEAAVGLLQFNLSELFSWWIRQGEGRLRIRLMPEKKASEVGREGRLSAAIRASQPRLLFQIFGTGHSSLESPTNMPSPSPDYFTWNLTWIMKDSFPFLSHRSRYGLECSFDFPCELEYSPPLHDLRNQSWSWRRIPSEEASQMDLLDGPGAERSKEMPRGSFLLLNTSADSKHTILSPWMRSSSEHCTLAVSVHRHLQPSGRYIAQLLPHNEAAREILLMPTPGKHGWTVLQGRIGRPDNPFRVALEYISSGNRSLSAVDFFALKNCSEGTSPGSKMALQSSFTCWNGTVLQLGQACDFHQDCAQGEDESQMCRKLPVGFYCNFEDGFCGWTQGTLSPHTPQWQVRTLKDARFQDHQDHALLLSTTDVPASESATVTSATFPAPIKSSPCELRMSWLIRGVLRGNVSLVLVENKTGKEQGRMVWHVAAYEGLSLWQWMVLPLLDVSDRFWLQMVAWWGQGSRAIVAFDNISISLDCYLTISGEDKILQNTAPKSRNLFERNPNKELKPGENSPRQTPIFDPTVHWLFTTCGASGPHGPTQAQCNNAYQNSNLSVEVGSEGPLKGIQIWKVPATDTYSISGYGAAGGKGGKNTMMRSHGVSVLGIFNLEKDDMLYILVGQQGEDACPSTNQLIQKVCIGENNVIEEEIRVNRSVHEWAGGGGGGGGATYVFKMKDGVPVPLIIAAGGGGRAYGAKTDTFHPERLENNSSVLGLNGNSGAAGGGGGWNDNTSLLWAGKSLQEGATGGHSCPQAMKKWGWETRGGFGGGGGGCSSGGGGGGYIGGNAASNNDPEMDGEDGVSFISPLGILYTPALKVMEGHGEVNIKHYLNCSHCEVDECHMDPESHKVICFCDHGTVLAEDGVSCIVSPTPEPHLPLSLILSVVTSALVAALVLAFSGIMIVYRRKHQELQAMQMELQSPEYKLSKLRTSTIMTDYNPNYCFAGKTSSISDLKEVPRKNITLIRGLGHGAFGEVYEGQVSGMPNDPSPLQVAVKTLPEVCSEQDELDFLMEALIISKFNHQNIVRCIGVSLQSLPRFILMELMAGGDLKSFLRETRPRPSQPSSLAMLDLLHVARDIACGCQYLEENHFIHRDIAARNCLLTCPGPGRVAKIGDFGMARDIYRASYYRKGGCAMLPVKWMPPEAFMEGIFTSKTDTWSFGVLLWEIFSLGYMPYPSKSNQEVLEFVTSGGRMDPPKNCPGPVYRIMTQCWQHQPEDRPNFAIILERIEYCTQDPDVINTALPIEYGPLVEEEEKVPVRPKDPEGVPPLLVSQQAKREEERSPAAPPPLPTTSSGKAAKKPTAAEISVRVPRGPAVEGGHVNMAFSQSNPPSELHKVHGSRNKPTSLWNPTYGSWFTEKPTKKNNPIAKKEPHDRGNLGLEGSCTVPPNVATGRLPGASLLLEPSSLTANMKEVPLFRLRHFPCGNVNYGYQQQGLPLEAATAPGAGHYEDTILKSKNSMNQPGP
# [19] = target: Tyrosine-protein kinase Lck (Homo sapiens) (UniProt P06239); settings: Compound concentration 1000.0 nM
# [20] = target: Beta-adrenergic receptor kinase 1 (Homo sapiens) (UniProt P25098); settings: Compound concentration 1000.0 nM
# [21] = target: Cyclin-dependent kinase 8 (Homo sapiens) (UniProt P49336); settings: Compound concentration 1000.0 nM
# [22] = target: Sodium-dependent noradrenaline transporter (Homo sapiens) (UniProt P23975); settings: Compound concentration 10.0 uM
# [23] = target: Alpha-1D adrenergic receptor (Homo sapiens) (UniProt P25100); settings: Compound concentration 10.0 uM
# [24] = target: Tyrosine-protein kinase ITK/TSK (Homo sapiens) (UniProt Q08881); settings: Compound concentration 1000.0 nM
# [25] = target: Cyclin-dependent kinase 4 (Homo sapiens) (UniProt P11802); settings: Compound concentration 1000.0 nM
# [26] = target: Dual specificity mitogen-activated protein kinase kinase 1 (Homo sapiens) (UniProt Q02750); settings: Compound concentration 1000.0 nM
# [27] = target: Cyclin-dependent kinase 16 (Homo sapiens) (UniProt Q00536); settings: Compound concentration 1000.0 nM
# [28] = target: Serine/threonine-protein kinase TAO1 (Homo sapiens) (UniProt Q7L7X3); settings: Compound concentration 1000.0 nM
# [29] = target: Mitogen-activated protein kinase 13 (Homo sapiens) (UniProt O15264); settings: Compound concentration 1000.0 nM
# [30] = target: Ephrin type-A receptor 2 (Homo sapiens) (UniProt P29317); settings: Compound concentration 1000.0 nM
# [31] = target: Phosphatidylinositol 4,5-bisphosphate 3-kinase catalytic subunit alpha isoform (Homo sapiens) (UniProt P42336); settings: Compound concentration 1000.0 nM
# [32] = target: Mu-type opioid receptor (Homo sapiens) (UniProt P35372); settings: Compound concentration 10.0 uM
# [33] = target: Dual specificity tyrosine-phosphorylation-regulated kinase 1B (Homo sapiens) (UniProt Q9Y463); settings: Compound concentration 1000.0 nM
# [34] = target: Tyrosine-protein kinase receptor TYRO3 (Homo sapiens) (UniProt Q06418); settings: Compound concentration 1000.0 nM
# [35] = target: Tyrosine-protein kinase CSK (Homo sapiens) (UniProt P41240); settings: Compound concentration 1000.0 nM
# Rattus norvegicus = organism: Rattus norvegicus; settings: Compound concentration 10.0 uM
# [36] = target: Serine/threonine-protein kinase PAK 5 (Homo sapiens) (UniProt Q9P286); settings: Compound concentration 1000.0 nM
# [37] = target: Serine/threonine-protein kinase PRP4 homolog (Homo sapiens) (UniProt Q13523); settings: Compound concentration 1000.0 nM
# [38] = system: Epidermal growth factor receptor (Homo sapiens), P00533 [UNDEFINED MUTATION]; settings: Compound concentration 1000.0 nM; remark: listed apart in the source
# [39] = target: Homeodomain-interacting protein kinase 3 (Homo sapiens) (UniProt Q9H422); settings: Compound concentration 1000.0 nM
# [40] = target: Beta-1 adrenergic receptor (Homo sapiens) (UniProt P08588); settings: Compound concentration 10.0 uM
# [41] = target: Mitogen-activated protein kinase 11 (Homo sapiens) (UniProt Q15759); settings: Compound concentration 1000.0 nM
# [42] = target: Serine/threonine-protein kinase 24 (Homo sapiens) (UniProt Q9Y6E0); settings: Compound concentration 1000.0 nM
# [43] = target: Histamine H2 receptor (Homo sapiens) (UniProt P25021); settings: Compound concentration 10.0 uM
# [44] = system: Epidermal growth factor receptor (Homo sapiens), P00533 [G719C]; settings: Compound concentration 1000.0 nM
# [45] = target: Sigma non-opioid intracellular receptor 1 (Homo sapiens) (UniProt Q99720); settings: Compound concentration 10.0 uM
structure (smiles),measurement,setting,value
C[C@H](c1ccc(F)cc1)N(Cc1cccc(C(=O)O)c1)C(=O)c1cnc2ccccc2c1 [PF-05105679],residual activity,[1],100%
same,residual activity,[2],100%
same,residual activity,[3],80%
same,residual activity,[4],76%
same,residual activity,[5],98%
same,residual activity,[6],85%
same,residual activity,[7],100%
same,residual activity,[8],91%
same,residual activity,[9],100%
same,residual activity,[10],100%
same,residual activity,[11],76%
same,residual activity,[12],81%
same,residual activity,[13],95%
same,residual activity,[14],100%
same,residual activity,[15],79%
same,residual activity,[16],100%
same,residual activity,[17],100%
same,residual activity,[18],76%
same,residual activity,[19],100%
same,residual activity,[20],80%
same,residual activity,[21],100%
same,inhibition,[22],2.04%
same,inhibition,[23],27.3%
same,residual activity,[24],84%
same,residual activity,[25],100%
same,residual activity,[26],100%
same,residual activity,[27],100%
same,residual activity,[28],100%
same,residual activity,[29],95%
same,residual activity,[30],100%
same,residual activity,[31],100%
same,inhibition,[32],1.23%
same,residual activity,[33],100%
same,residual activity,[34],100%
same,residual activity,[35],100%
same,inhibition,Rattus norvegicus,70%
same,residual activity,[36],93%
same,residual activity,[37],100%
same,residual activity,[38],100%
same,residual activity,[39],100%
same,inhibition,[40],7.42%
same,residual activity,[41],100%
same,residual activity,[42],100%
same,inhibition,[43],-1.14%
same,residual activity,[44],90%
same,inhibition,[45],16%
